# Data reported in PubChem BioAssay AID248 (DTP/NCI, 2004).
# “And” between values parts separate entries of the source, which are not always exact repeats. Identical values can stand only once. Toxic doses and inconclusive results are not listed.
# Tested on: L1210 leukemia ip in BDF1 mice, survival T/C
# Experiment: NCI In Vivo Anticancer Drug Screen. Data for tumor model L1210 Leukemia (intraperitoneal) in B6D2F1 (BDF1) mice
# Settings: endpoint: mean survival time, higher = longer survival
# Outline: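 Tumor was transplanted into mice, which were then dosed with test compound or vehicle alone. Survival was recorded for each group, and the treated figure was expressed relative to the control figure.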
# [1] = dose: 100.0 mg/kg/injection, schedule: Q04DX002 (ip), vehicle: Klucel (hydroxypropylcellulose) (HPC)
# [2] = dose: 200.0 mg/kg/injection, schedule: Q01DX009 (ip), vehicle: Klucel (hydroxypropylcellulose) (HPC)
# [3] = dose: 200.0 mg/kg/injection, schedule: Q04DX002 (ip), vehicle: Klucel (hydroxypropylcellulose) (HPC)
# [4] = dose: 400.0 mg/kg/injection, schedule: Q01DX009 (ip), vehicle: Klucel (hydroxypropylcellulose) (HPC)
# [5] = dose: 100.0 mg/kg/injection, schedule: Q01DX001 (ip), vehicle: Klucel (hydroxypropylcellulose) (HPC)
# [6] = dose: 200.0 mg/kg/injection, schedule: Q01DX001 (ip), vehicle: Klucel (hydroxypropylcellulose) (HPC)
# [7] = dose: 400.0 mg/kg/injection, schedule: Q01DX001 (ip), vehicle: Klucel (hydroxypropylcellulose) (HPC)
# [8] = dose: 100.0 mg/kg/injection, schedule: Q01DX009 (ip), vehicle: saline with Tween-80
# [9] = dose: 200.0 mg/kg/injection, schedule: Q01DX009 (ip), vehicle: saline with Tween-80
# [10] = dose: 400.0 mg/kg/injection, schedule: Q01DX009 (ip), vehicle: saline with Tween-80
# [11] = dose: 50.0 mg/kg/injection, schedule: Q01DX Z (ip), vehicle: carboxymethylcellulose (CMC)
# [12] = dose: 100.0 mg/kg/injection, schedule: Q01DX001 (ip), vehicle: carboxymethylcellulose (CMC)
# [13] = dose: 100.0 mg/kg/injection, schedule: Q01DX Z (ip), vehicle: carboxymethylcellulose (CMC)
# [14] = dose: 100.0 mg/kg/injection, schedule: Q04DX003 (ip), vehicle: saline with Tween-80
# [15] = dose: 200.0 mg/kg/injection, schedule: Q01DX001 (ip), vehicle: carboxymethylcellulose (CMC)
# [16] = dose: 200.0 mg/kg/injection, schedule: Q04DX003 (ip), vehicle: saline with Tween-80
# [17] = dose: 400.0 mg/kg/injection, schedule: Q04DX003 (ip), vehicle: saline with Tween-80
smiles,measurement,setting,value
CN(C)N=Nc1cc2c(cc1O)CC[C@@H]1[C@@H]2CC[C@]2(C)C(=O)CC[C@@H]12,T/C,"dose: 25.0 mg/kg/injection, schedule: Q01DX009 (ip), vehicle: Klucel (hydroxypropylcellulose) (HPC)",97 % of control
same,T/C,"dose: 50.0 mg/kg/injection, schedule: Q01DX009 (ip), vehicle: Klucel (hydroxypropylcellulose) (HPC)",90 % of control
same,T/C,"dose: 50.0 mg/kg/injection, schedule: Q04DX002 (ip), vehicle: Klucel (hydroxypropylcellulose) (HPC)",90 % of control
same,T/C,"dose: 100.0 mg/kg/injection, schedule: Q01DX009 (ip), vehicle: Klucel (hydroxypropylcellulose) (HPC)",110 % of control
same,T/C,[1],90 % of control
same,T/C,[2],103 % of control
same,T/C,[3],87 % of control
same,T/C,[4],96 % of control
CCC(C(C)C)C(Br)C(Br)C(C)C1CCC2C3CC=C4CC(OC(C)=O)CCC4(C)C3CCC12C (stereo not drawn),T/C,[2],91 % of control
same,T/C,[4],96 % of control
c1ccc(N/N=C(\c2ccccc2)c2ccccn2)cc1,T/C,"dose: 100.0 mg/kg/injection, schedule: Q01DX001 (ip), vehicle: saline with Tween-80",105 % of control
same,T/C,"dose: 200.0 mg/kg/injection, schedule: Q01DX001 (ip), vehicle: saline with Tween-80",94 % of control
same,T/C,"dose: 400.0 mg/kg/injection, schedule: Q01DX001 (ip), vehicle: saline with Tween-80",94 % of control
C/C(CCCCCCCCC#N)=N/NC(N)=O,T/C,[5],103 % of control
same,T/C,[6],106 % of control
same,T/C,[7],105 % of control
CC1(C)COC(c2ccccc2)=N1,T/C,[8],105 % of control
same,T/C,"dose: 100.0 mg/kg/injection, schedule: Q04DX003 (ip), vehicle: saline sonified",93 % of control
same,T/C,[9],103 % of control
same,T/C,"dose: 200.0 mg/kg/injection, schedule: Q04DX003 (ip), vehicle: saline sonified",87 % of control
same,T/C,[10],102 % of control
same,T/C,"dose: 400.0 mg/kg/injection, schedule: Q04DX003 (ip), vehicle: saline sonified",90 % of control
COc1ccc(/C=N/NC(=O)c2ccc(N)cc2)cc1,T/C,[1],106 % of control
same,T/C,[3],100 % of control
same,T/C,"dose: 400.0 mg/kg/injection, schedule: Q04DX002 (ip), vehicle: Klucel (hydroxypropylcellulose) (HPC)",95 % of control
O=C(O)C1CCC(CC2CCC2)CC1 (stereo not drawn),T/C,[5],95 % of control
same,T/C,"dose: 100.0 mg/kg/injection, schedule: Q04DX003 (ip), vehicle: Klucel (hydroxypropylcellulose) (HPC)",98 % of control
same,T/C,[6],100 % of control
same,T/C,"dose: 200.0 mg/kg/injection, schedule: Q04DX003 (ip), vehicle: Klucel (hydroxypropylcellulose) (HPC)",98 % of control
same,T/C,[7],92 % of control
same,T/C,"dose: 400.0 mg/kg/injection, schedule: Q04DX003 (ip), vehicle: Klucel (hydroxypropylcellulose) (HPC)",95 % of control
O=C(O)c1cc(CBr)cc(CBr)c1,T/C,"dose: 3.13 mg/kg/injection, schedule: Q01DX009 (ip), vehicle: saline with Tween-80",97 % of control
same,T/C,"dose: 6.25 mg/kg/injection, schedule: Q01DX001 (ip), vehicle: saline with Tween-80",102 % of control
same,T/C,"dose: 6.25 mg/kg/injection, schedule: Q01DX009 (ip), vehicle: saline with Tween-80",101 % of control
same,T/C,"dose: 12.5 mg/kg/injection, schedule: Q01DX001 (ip), vehicle: saline with Tween-80",113 % of control
CN1Cc2c(ccc3c2OCO3)[C@@H]2[C@H](O)Cc3cc4c(cc3[C@@H]21)OCO4,T/C,[11],102 % of control
same,T/C,"dose: 75.0 mg/kg/injection, schedule: Q01DX Z (ip), vehicle: carboxymethylcellulose (CMC)",108 % of control
same,T/C,[12],102 % of control
same,T/C,[13],102 % of control
same,T/C,[14],101 % of control
same,T/C,"dose: 180.0 mg/kg/injection, schedule: Q04DX003 (ip), vehicle: Klucel (hydroxypropylcellulose) (HPC)",111 % of control
same,T/C,[15],113 % of control
same,T/C,[16],101 % of control
same,T/C,"dose: 266.0 mg/kg/injection, schedule: Q04DX003 (ip), vehicle: Klucel (hydroxypropylcellulose) (HPC)",98 % of control
same,T/C,"dose: 266.0 mg/kg/injection, schedule: Q04DX003 (ip), vehicle: saline",105 % of control
same,T/C,"dose: 300.0 mg/kg/injection, schedule: Q01DX Z (ip), vehicle: carboxymethylcellulose (CMC)",98 % of control
same,T/C,"dose: 400.0 mg/kg/injection, schedule: Q01DX001 (ip), vehicle: carboxymethylcellulose (CMC)",102 % of control
same,T/C,[17],165 % of control
same,T/C,"dose: 400.0 mg/kg/injection, schedule: Q04DX003 (ip), vehicle: saline",111 % of control
same,T/C,"dose: 600.0 mg/kg/injection, schedule: Q04DX003 (ip), vehicle: Klucel (hydroxypropylcellulose) (HPC)",157 % of control
Nc1ncc(CBr)c(N)n1,T/C,"dose: 100.0 mg/kg/injection, schedule: Q04DX003 (ip), vehicle: saline",97 % of control
same,T/C,"dose: 200.0 mg/kg/injection, schedule: Q04DX003 (ip), vehicle: saline",96 % of control
CC1=NN(c2ccccc2)/C(=N/N=C(N)N)C1CC1C(C)=NN(c2ccccc2)/C1=N/N=C(N)N (stereo not drawn),T/C,"dose: 15.0 mg/kg/injection, schedule: Q01DX Z (ip), vehicle: carboxymethylcellulose (CMC)",102 % of control
same,T/C,"dose: 30.0 mg/kg/injection, schedule: Q01DX Z (ip), vehicle: carboxymethylcellulose (CMC)",97 % of control
same,T/C,"dose: 60.0 mg/kg/injection, schedule: Q01DX Z (ip), vehicle: carboxymethylcellulose (CMC)",100 % of control and 102 % of control
same,T/C,"dose: 120.0 mg/kg/injection, schedule: Q01DX Z (ip), vehicle: carboxymethylcellulose (CMC)",95 % of control and 96 % of control
same,T/C,"dose: 240.0 mg/kg/injection, schedule: Q01DX Z (ip), vehicle: carboxymethylcellulose (CMC)",91 % of control
COc1ccc(C2CCCCCC2OS(C)(=O)=O)c(OC)c1OC (stereo not drawn),T/C,[12],108 % of control
same,T/C,[15],119 % of control
COS(C)(=O)=O,T/C,"dose: 12.5 mg/kg/injection, schedule: Q01DX010 (ip), vehicle: saline",101 % of control and 91 % of control
same,T/C,"dose: 25.0 mg/kg/injection, schedule: Q01DX010 (ip), vehicle: saline",102 % of control and 106 % of control
same,T/C,"dose: 25.0 mg/kg/injection, schedule: Q01DX Z (ip), vehicle: carboxymethylcellulose (CMC)",97 % of control
same,T/C,"dose: 50.0 mg/kg/injection, schedule: Q01DX010 (ip), vehicle: saline",96 % of control and 106 % of control
same,T/C,[11],106 % of control
same,T/C,"dose: 100.0 mg/kg/injection, schedule: Q01DX010 (ip), vehicle: saline",95 % of control and 102 % of control
same,T/C,[13],95 % of control
COc1ccc(Nc2nc(N)nc(N)c2N)cc1,T/C,"dose: 100.0 mg/kg/injection, schedule: Q01DX Z (ip), vehicle: saline",87 % of control
CCC(C)c1ccc(O)c(C(C)CC)c1 (stereo not drawn),T/C,[8],106 % of control
same,T/C,[14],106 % of control
same,T/C,[9],101 % of control
same,T/C,[16],101 % of control
same,T/C,[10],102 % of control
same,T/C,[17],94 % of control
CC1(C)CCC(=NO)CC1,T/C,"dose: 75.0 mg/kg/injection, schedule: Q01DX001 (ip), vehicle: other",103 % of control
same,T/C,"dose: 150.0 mg/kg/injection, schedule: Q01DX001 (ip), vehicle: other",97 % of control
CC(=O)[C@@]1(O)CC[C@H]2[C@@H]3C[C@H](C)C4=CC(=O)C=C[C@]4(C)[C@@]3(F)[C@@H](O)C[C@@]21C,T/C,"dose: 100.0 mg/kg/injection, schedule: Q01DX001 (sc), vehicle: steriod suspending solution",103 % of control
same,T/C,"dose: 100.0 mg/kg/injection, schedule: Q01DX009 (sc), vehicle: steriod suspending solution",115 % of control
same,T/C,"dose: 200.0 mg/kg/injection, schedule: Q01DX001 (sc), vehicle: steriod suspending solution",100 % of control
same,T/C,"dose: 200.0 mg/kg/injection, schedule: Q01DX009 (sc), vehicle: steriod suspending solution",108 % of control
same,T/C,"dose: 400.0 mg/kg/injection, schedule: Q01DX001 (sc), vehicle: steriod suspending solution",103 % of control
same,T/C,"dose: 400.0 mg/kg/injection, schedule: Q01DX009 (sc), vehicle: steriod suspending solution",111 % of control
same,T/C,"dose: 800.0 mg/kg/injection, schedule: Q01DX001 (sc), vehicle: steriod suspending solution",103 % of control
same,T/C,"dose: 800.0 mg/kg/injection, schedule: Q01DX009 (sc), vehicle: steriod suspending solution",101 % of control
